Consider 15 molecules from patent US4097496A, “Novel cyclopentane derivatives” (Hoechst Aktiengesellschaft, priority 1973, dated 1978).

Experiment [1] has as its system PGF2α-contraction in the isolated guinea pig uterus. In words: Inhibition of the PGF2α-contraction in the isolated guinea pig uterus. The conditions noted are these: Cavia porcellus, agonist PGF2α 40 ng/ml, deJalon solution, probit analysis. How it is done:
(§1) It is surprising that the compounds of the formula I which are closely related to the natural prostaglandins with regard to their structure, as it has been mentioned above, have a strong anti-prostaglandin effect. If, for example, a solution of the compounds of the invention in water is added to the isolated guinea pig ileum or uterus and if for example prostaglandin E2 or F2 α is added to this solution, in concentrations which normally stimulate the isolated ileum or the isolated uterus to strong contractions, only a weaker or no spasmogenic effect of the prostaglandins E2 and F2 α can be detected - depending on the concentrations used.
As test animals were used brown guinea pigs, males and females having a weight of from about 300 to 400 g. The animals were killed by a blow into the neck, the terminal ileum was rapidly taken off and put into a Petri dish containing a pre-heated Tyrode's solution. The intestine was decomposed into four equal sections (2 to 3 cm). […] This latter contraction was considered as being 100%, and the contraction determined by the compound of the invention acting as antagonist was expressed in percent with regard to this basic contraction. […]
The average concentration was determined by means of the probit analysis. The straight line resulting from this method allowed to read the average inhibiting concentration (Table I). […]

Experiment [2] deals with PGE2-contraction in the isolated guinea pig ileum. Description: Inhibition of the PGE2-contraction in the isolated guinea pig ileum. The conditions noted are these: Cavia porcellus, agonist PGE2 200 ng/ml; for IC50: 3 min pre-treatment, probit analysis, 37° C; for inhibition at 10 µg/mL: at 10 μg/ml. The protocol:
as §1
As test animals were used brown guinea pigs, males and females having a weight of from about 300 to 400 g. The animals were killed by a blow into the neck, the terminal ileum was rapidly taken off and put into a Petri dish containing a pre-heated Tyrode's solution. The intestine was decomposed into four equal sections (2 to 3 cm). Then the individual sections were put into an organ liquor filled with a Tyrode's solution and bubbled through by oxygen and they were fixed. The bath temperature was 37° C. Composition of the Tyrode's solution: […], 0.2 g of KCl, 0.55 g of CaCl2, 0.2 g of Mg Cl2, 1.0 g of glucose, 1.0 g of NaHCO3 in 1000 ml of distilled water. The free end was connected with the writing lever by a thread. The charge of the thread was 1 g. After a 30 minutes' recovery time the test itself was initiated. The test consisted in a pre-treatment with the antagonist to be tested and in the administration of the agonist three minutes later. The resulting contraction was compared with the initial contraction achieved by the administration of the agonist only. This latter contraction was considered as being 100%, and the contraction determined by the compound of the invention acting as antagonist was expressed in percent with regard to this basic contraction. All substances were dissolved in absolute alcohol and further diluted to their final concentrations with phosphate buffer (pH 7.4). As agonists were used prostaglandin E2 (UPJOHN) in the isolated ileum, and PGF2 in the isolated uterus.
The average concentration was determined by means of the probit analysis. The straight line resulting from this method allowed to read the average inhibiting concentration (Table I).
Inhibition of the PGE2 - and PGF2α -contraction in the isolated guinea pig ileum or uterus

[3] abbreviates: read-out: inhibition in percent for the corresponding dosis.

≈ marks a conversion by molar mass, not a printed value.

As a reminder, the IC50 is the concentration that gives 50% inhibition. For `CCCCCC(O)/C=C/C1CCC(O)C1(CCCCCCC(=O)O)C(=O)OCC` (stereo not drawn) [Example 3, (5 RS, 3" SR)-1-(6'-carboxyhexyl)-2-hydroxy-5-(3"-hydroxy-trans-1"-octenyl)-cyclopentane-carboxylic acid ethyl ester], the half-maximal inhibitory concentration (IC50) in experiment [1] came to 2 µg/mL (≈ 4.85 µM). For `CCCCCC(/C=C/C1CCC(=O)C1(CCC(C)CCCC(=O)OCC)C(=O)OCC)OC1CCCCO1` (stereo not drawn) [Example 4, (5 RS, 3" SR)-1-(6'-Ethoxycarbonyl-3'-methylhexyl)-2-oxo-5-[3"-(2"'-tetrahydropyranyloxy)-trans-1"-octenyl]-cyclopentane-carboxylic acid ethyl ester], the IC50 in experiment [2] was 1.2 µg/mL (≈ 2.24 µM). Take `CCCCCC(/C=C/C1CCC(O)C1(CCC(C)CCCC(=O)O)C(=O)OCC)OC1CCCCO1` (stereo not drawn) [Example 5, (5 RS, 3" SR)-1-(6'-Carboxy-3'-methylhexyl)-2-hydroxy-5-[3"-(2"'-tetrahydropyranyloxy)-trans-1"-octenyl]-cyclopentane-carboxylic acid ethyl ester]: in experiment [1], the IC50 turned out to be 10 µg/mL (≈ 19.6 µM). Usually inhibition stands for the change of the read-out against control, counted positive when it falls. In the case of `CCCCCC(/C=C/C1CCC(O)C1(CCCC(C)CCC(=O)O)C(=O)OCC)OC1CCCCO1` (stereo not drawn) [Example 8, (5RS,3"SR)-1-(6'-Carboxy-4'-methylhexyl)-2-hydroxy-5-[3"-(2'"-tetrahydropyranyloxy)-trans-1"-octenyl]-cyclopentane-carboxylic acid ethyl ester], the IC50 in experiment [2] was less than 10 µg/mL. The inhibition at 10 µg/mL in experiment [2] (setting [3]) was 80%. For `CCCCCC(/C=C/C1CCC(=O)C1(CCCCC(C)CC(=O)OCC)C(=O)OCC)OC1CCCCO1` (stereo not drawn) [Example 10, (5RS,3"SR)-1-(6'-Ethoxycarbonyl-5'-methylhexyl)-2-oxo-5-[3"-(2'"-tetrahydropyranyloxy)-trans-1"-octenyl]-cyclopentane-carboxylic acid ethyl ester], in that order: more than 10 µg/mL and 10%. For `CCCCCC(/C=C/C1CCC(O)C1(CCCCC(C)CC(=O)O)C(=O)OCC)OC1CCCCO1` (stereo not drawn) [Example 11, (5RS,3"SR)-1-(6'-Carboxy-5'-methylhexyl)-2-hydroxy-5-[3"-(2'"-tetrahydropyranyloxy)-trans-1"-octenyl]-cyclopentane-carboxylic acid ethyl ester], in that order: less than 10 µg/mL and 80%. For `CCCCCC(/C=C/C1CCC(=O)C1(CCCCCC(C)C(=O)OCC)C(=O)OCC)OC1CCCCO1` (stereo not drawn) [Example 13, (5RS,3"SR)-1-(6'-Ethoxycarbonylheptyl)-2-oxo-5-[3"-(2'"-tetrahydropyranyloxy)-trans-1"-octenyl]-cyclopentane-carboxylic acid ethyl ester], the half-maximal inhibitory concentration (IC50) in experiment [2] was approximately 5 µg/mL (≈ 9.32 µM).

As for `CCCCCC(O)/C=C/C1CCC(O)C1(CCCCOCC(=O)O)C(=O)OCC` (stereo not drawn) [Example 30, (5RS,3"SR)-1-(6'-Carboxy-5'-oxahexyl)-2-hydroxy-5-[3"-hydroxy-trans-1"-octentyl]-cyclopentane-carboxylic acid ethyl ester], in experiment [2], the IC50 was less than 5 µg/mL. Besides, the inhibition at 5 µg/mL in experiment [2] (at 5 μg/ml, read-out: inhibition in percent for the corresponding dosis) came to 80%. On to `CCCCCC(O)/C=C/C1CCC(O)C1(C/C=C\COCC(=O)O)C(=O)OCC` (stereo not drawn) [Example 32, (5RS,3"SR)-1-(6'-Carboxy-5'-oxa-cis-2'-hexenyl)-2-hydroxy5-[3"-hydroxy-trans-1"-octenyl]-cyclopentane-carboxylic acid ethyl ester], for which, in experiment [2], the half-maximal inhibitory concentration (IC50) was approximately 5 µg/mL (≈ 12.1 µM). In the case of `CCCCCC(/C=C/C1CCC(O)C1(C/C=C/COCC(=O)O)C(=O)OCC)OC1CCCCO1` (stereo not drawn) [Example 35, (5RS,3"SR)-1-(6'-Carboxy-5'-oxa-trans-2'-hexenyl)-2-hydroxy-5-[3"-(2'"-tetrahydropyranyloxy)-trans-1"-octenyl]cyclopntane-carboxylic acid ethyl ester], in experiment [2], the half-inhibitory concentration (IC50) came out at 2.3 µg/mL (≈ 4.63 µM). On the same count and under the same terms, the result for `CCCCCC(O)/C=C/C1CCC(O)C1(C/C=C/COCC(=O)OCC)C(=O)OCC` (stereo not shown) [Example 36] reads 4.6 µg/mL (≈ 10.4 µM). On to `CCCCCC(O)/C=C/C1CCC(O)C1(C/C=C/COCC(=O)O)C(=O)OCC` (stereo not drawn) [Example 37, (5RS,3"SR)-1-(6'-Carboxy-5'-oxa-trans-2'-hexenyl)-2-hydroxy-5-(3"-hydroxy-trans-1"-octenyl)-cyclopentanecarboxylic acid ethyl ester], for which the IC50 in experiment [2] was less than 10 µg/mL. Also, in experiment [2] (setting [3]), the inhibition at 10 µg/mL is 65%. Taken in the same sequence, the figures for `CCCCCC(/C=C/C1CCC(=O)C1(Cc1ccccc1CCCC(=O)OCC)C(=O)OCC)OC1CCCCO1` (stereo not drawn) [Example 44, (5RS,3'"SR)-1-[2'-(3"-Ethoxycarbonylpropyl)-benzyl]-2-oxo-5-[3'"-(2""-tetrahydropyranyloxy)-trans-1'"-octenyl]-cyclopentane-carboxylic acid ethyl ester] were less than 10 µg/mL and 40%. `CCCCCC(/C=C/C1CCC(O)C1(Cc1ccccc1CCCC(=O)O)C(=O)OCC)OC1CCCCO1` (stereo not drawn) [Example 45, (5RS,3'"SR)-1-[2'-(3"-Carboxypropyl)-benzyl]-2-hydroxy-5-[3'"-(2""-tetrahydropyranyloxy)-trans-1'"-octenyl]-cyclopentane-carboxylic acid ethyl ester]: in experiment [2], the IC50 was approximately 10 µg/mL (≈ 18.4 µM). As for `CCCCCC(O)/C=C/C1CCC(O)C1(Cc1ccccc1CCCC(=O)O)C(=O)OCC` (stereo not drawn) [Example 46, (5RS,3'"SR)-1-[2'-(3"-Carboxypropyl)-benzyl]-2-hydroxy-5-[3'"-hydroxy-trans-1'"-octenyl]-cyclopentane-carboxylic acid ethyl ester], in experiment [2], the half-inhibitory concentration (IC50) was less than 10 µg/mL. Besides, in experiment [2] (setting [3]), the inhibition at 10 µg/mL was determined as 80%.
